# Tests used:
# SW480 (G12V) = experiment: In vitro cell proliferation inhibition test (CellTiter-Glo), SW480; type: cell-based; settings: Homo sapiens, SW480 colon cell line, KRAS (p.G12V), 72 h co-incubation
# Excerpt: Test Example 1: In Vitro Cell Proliferation Inhibition Test
# Due to the diversity of RAS mutations and in order to evaluate the activity of compounds in different RAS mutation cell lines, we selected KRAS^WT, KRAS^G12C, KRAS^G12D, KRAS^G12V and BRAF mutation cell lines (see the table below) for in vitro activity evaluation and screening of compounds.
# Protocol: CellTiter-Glo® Cell Luminescent Viability Assay (Promega)
# According to the doubling time of different cell lines, different numbers of cells (1000-5000 cells/well) were seeded in 96-well plates containing 180 μl of corresponding culture medium and cultured overnight in a cell culture incubator at 37° C. with 5% CO2. On the second day, the test compound was pre-diluted 3-fold with culture medium, with the highest concentration being 100 μM, for a total of 10 concentration gradients; then 20 μl of culture medium containing different concentrations of the compound was added to the cells in the 96-well plate to ensure that the final concentration of the compound was up to 10 μM, with 10 concentration gradients of 3-fold dilution. After the cells and compounds were co-incubated for 72 h, the 96-well plate was removed from the incubator and equilibrated at room temperature for 30 min. Then, 25 μl of CellTiter-Glo® Reagent was added to each well and mixed thoroughly. The mixture was incubated at room temperature for 10 min, and then 100 μl of the sample was transferred to a white 96-well plate (OptiPlate™-96, PerkinElmer). The […] signal value was read using a multi-function microplate reader (SpectraMax® i3x, Molecular devices). The signal values were then standardized, and the curve was fitted using a four-parameter regression equation to calculate the half maximal inhibitory concentration (IC50) of the compound on the cell line.
# AsPC-1 (G12D) = experiment: In vitro cell proliferation inhibition test (CellTiter-Glo), AsPC-1; type: cell-based; settings: Homo sapiens, ASPC1, AsPC-1 pancreas cell line, KRAS (p.G12D), 72 h co-incubation
# Summary of the method: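 IC50 was derived by four-parameter fitting of normalized CellTiter-Glo signals. These were measured after 72 h co-incubation with compound at 10 concentrations, 3-fold serial, final maximum 10 μM. Plating was 1000-5000 cells/well, adjusted to growth rate, with overnight attachment at 37 °C, 5% CO2.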
Structure (SMILES),IC50 (SW480 (G12V)),IC50 (AsPC-1 (G12D))
"CCn1c(-c2cc(-c3nc(C)n(C)n3)cnc2[C@H](C)OC)c2c3cc(ccc31)-c1csc(n1)C[C@H](NC(=O)[C@H]1C[C@@H]1C)C(=O)N1CCC[C@H](N1)C(=O)OCC(C)(C)C2 (atropisomer, axis not shown) [Compound 20, (1S,2S)-N-((6^3S,4S,Z)-1^2-(5-(4,5-dimethyl-4H-1,2,4-triazol-3-yl)-2-((S)-1-methoxyethyl)pyridin-3-yl)-1^1-ethyl-10,10-dimethyl-5,7-dioxo-6^1,6^2,6^3,6^4,6^5,6^6-hexahydro-1^1H-8-oxa-2(4,2)-thiazola-1(5,3)-indola-6(1,3)-pyridazinacycloundecaphane-4-yl)-2-methylcyclopropane-1-carboxamide]",3 nM,3.4 nM
"CCn1c(-c2cc(-c3nc(C)no3)cnc2[C@H](C)OC)c2c3cc(ccc31)-c1csc(n1)C[C@H](NC(=O)[C@H]1C[C@@H]1C)C(=O)N1CCC[C@H](N1)C(=O)OCC(C)(C)C2 (atropisomer, axis not shown) [Compound 21, (1S,2S)-N-((6^3S,4S,Z)-1^1-ethyl-1^2-(2-((S)-1-methoxyethyl)-5-(3-methyl-1,2,4-oxadiazol-5-yl)pyridin-3-yl)-10,10-dimethyl-5,7-dioxo-6^1,6^2,6^3,6^4,6^5,6^6-hexahydro-1^1H-8-oxa-2(4,2)-thiazola-1(5,3)-indola-6(1,3)-pyridazinacycloundecaphane-4-yl)-2-methylcyclopropane-1-carboxamide]",15 nM,11 nM
"CCn1c(-c2cc(-c3cc(CN4CCOCC4)on3)cnc2[C@H](C)OC)c2c3cc(ccc31)-c1csc(n1)C[C@H](NC(=O)[C@H]1C[C@@H]1C)C(=O)N1CCC[C@H](N1)C(=O)OCC(C)(C)C2 (atropisomer, axis not shown) [Compound 22, (1S,2S)-N-((6^3S,4S,Z)-1^1-ethyl-1^2-(2-((S)-1-methoxyethyl)-5-(5-(morpholinomethyl)isoxazol-3-yl)pyridin-3-yl)-10,10-dimethyl-5,7-dioxo-6^1,6^2,6^3,6^4,6^5,6^6-hexahydro-1^1H-8-oxa-2(4,2)-thiazola-1(5,3)-indola-6(1,3)-pyridazinacycloundecaphane-4-yl)-2-methylcyclopropane-1-carboxamide]",10 nM,11 nM
"CCn1c(-c2cc(-c3cc(CNC)on3)cnc2[C@H](C)OC)c2c3cc(ccc31)-c1csc(n1)C[C@H](NC(=O)[C@H]1C[C@@H]1C)C(=O)N1CCC[C@H](N1)C(=O)OCC(C)(C)C2 (atropisomer, axis not shown) [Compound 23, (1S,2S)-N-((6^3S,4S,Z)-1^1-ethyl-1^2-(2-((S)-1-methoxyethyl)-5-(5-((methylamino)methyl)isoxazol-3-yl)pyridin-3-yl)-10,10-dimethyl-5,7-dioxo-6^1,6^2,6^3,6^4,6^5,6^6-hexahydro-1^1H-8-oxa-2(4,2)-thiazola-1(5,3)-indola-6(1,3)-pyridazinacycloundecaphane-4-yl)-2-methylcyclopropane-1-carboxamide]",117 nM,42 nM
"CCn1c(-c2cc(-c3cc([C@H]4CCCN4C)on3)cnc2[C@H](C)OC)c2c3cc(ccc31)-c1csc(n1)C[C@H](NC(=O)[C@H]1C[C@@H]1C)C(=O)N1CCC[C@H](N1)C(=O)OCC(C)(C)C2 (atropisomer, axis not shown) [Compound 24, (1S,2S)-N-((6^3S,4S,Z)-1^1-ethyl-1^2-(2-((S)-1-methoxyethyl)-5-(5-((R)-1-methylpyrrolidin-2-yl)isoxazol-3-yl)pyridin-3-yl)-10,10-dimethyl-5,7-dioxo-6^1,6^2,6^3,6^4,6^5,6^6-hexahydro-1^1H-8-oxa-2(4,2)-thiazola-1(5,3)-indola-6(1,3)-pyridazinacycloundecaphane-4-yl)-2-methylcyclopropane-1-carboxamide]",19 nM,26 nM
"CCn1c(-c2cc(-c3cc([C@@H]4CCCN4C)on3)cnc2[C@H](C)OC)c2c3cc(ccc31)-c1csc(n1)C[C@H](NC(=O)[C@H]1C[C@@H]1C)C(=O)N1CCC[C@H](N1)C(=O)OCC(C)(C)C2 (atropisomer, axis not shown) [Compound 25, (1S,2S)-N-((6^3S,4S,Z)-1^1-ethyl-1^2-(2-((S)-1-methoxyethyl)-5-(5-((S)-1-methylpyrrolidin-2-yl)isoxazol-3-yl)pyridin-3-yl)-10,10-dimethyl-5,7-dioxo-6^1,6^2,6^3,6^4,6^5,6^6-hexahydro-1^1H-8-oxa-2(4,2)-thiazola-1(5,3)-indola-6(1,3)-pyridazinacycloundecaphane-4-yl)-2-methylcyclopropane-1-carboxamide]",22 nM,20 nM
"CCn1c(-c2cc(-c3cc([C@H]4CN(C)CCO4)on3)cnc2[C@H](C)OC)c2c3cc(ccc31)-c1csc(n1)C[C@H](NC(=O)[C@H]1[C@H](C)[C@@H]1C)C(=O)N1CCC[C@H](N1)C(=O)OCC(C)(C)C2 (atropisomer, axis not shown) [Compound 26, (1r,2R,3S)-N-((6^3S,4S,Z)-1^1-ethyl-1^2-(2-((S)-1-methoxyethyl)-5-(5-((R)-4-methylmorpholin-2-yl)isoxazol-3-yl)pyridin-3-yl)-10,10-dimethyl-5,7-dioxo-6^1,6^2,6^3,6^4,6^5,6^6-hexahydro-1^1H-8-oxa-2(4,2)-thiazola-1(5,3)-indola-6(1,3)-pyridazinacycloundecaphane-4-yl)-2,3-dimethylcyclopropane-1-carboxamide]",2.5 nM,10 nM

# Results, then the compound that gave them:
IC50 (SW480 (G12V)),IC50 (AsPC-1 (G12D)),Structure (SMILES)
1.8 nM,1.1 nM,"CCn1c(-c2cc(-c3cc([C@@H]4CN(C)CCO4)on3)cnc2[C@H](C)OC)c2c3cc(ccc31)-c1csc(n1)C[C@H](NC(=O)[C@H]1[C@H](C)[C@@H]1C)C(=O)N1CCC[C@H](N1)C(=O)OCC(C)(C)C2 (atropisomer, axis not shown) [Compound 27, (1r,2R,3S)-N-((6^3S,4S,Z)-1^1-ethyl-1^2-(2-((S)-1-methoxyethyl)-5-(5-((S)-4-methylmorpholin-2-yl)isoxazol-3-yl)pyridin-3-yl)-10,10-dimethyl-5,7-dioxo-6^1,6^2,6^3,6^4,6^5,6^6-hexahydro-1^1H-8-oxa-2(4,2)-thiazola-1(5,3)-indola-6(1,3)-pyridazinacycloundecaphane-4-yl)-2,3-dimethylcyclopropane-1-carboxamide]"
10 nM,3.2 nM,"CCn1c(-c2cc(-c3cc([C@@H]4CCN(C)C4)on3)cnc2[C@H](C)OC)c2c3cc(ccc31)-c1csc(n1)C[C@H](NC(=O)[C@H]1[C@H](C)[C@@H]1C)C(=O)N1CCC[C@H](N1)C(=O)OCC(C)(C)C2 (atropisomer, axis not shown) [Compound 29, (1r,2R,3S)-N-((6^3S,4S,Z)-1^1-ethyl-1^2-(2-((S)-1-methoxyethyl)-5-(5-((R)-1-methylpyrrolidin-3-yl)isoxazol-3-yl)pyridin-3-yl)-10,10-dimethyl-5,7-dioxo-6^1,6^2,6^3,6^4,6^5,6^6-hexahydro-1^1H-8-oxa-2(4,2)-thiazola-1(5,3)-indola-6(1,3)-pyridazinacycloundecaphane-4-yl)-2,3-dimethylcyclopropane-1-carboxamide]"
0.44 nM,0.58 nM,"CCn1c(-c2cc(-c3cc(C4CCN(C)CC4)on3)cnc2[C@H](C)OC)c2c3cc(ccc31)-c1csc(n1)C[C@H](NC(=O)[C@H]1C[C@@H]1C)C(=O)N1CCC[C@H](N1)C(=O)OCC(C)(C)C2 (atropisomer, axis not shown) [Compound 30, (1S,2S)-N-((6^3S,4S,Z)-1^1-ethyl-1^2-(2-((S)-1-methoxyethyl)-5-(5-(1-methylpiperidin-4-yl)isoxazol-3-yl)pyridin-3-yl)-10,10-dimethyl-5,7-dioxo-6^1,6^2,6^3,6^4,6^5,6^6-hexahydro-1^1H-8-oxa-2(4,2)-thiazola-1(5,3)-indola-6(1,3)-pyridazinacycloundecaphane-4-yl)-2-methylcyclopropane-1-carboxamide]"
2 nM,1.6 nM,"CCn1c(-c2cc(-c3cc(C4CN(C)C4)on3)cnc2[C@H](C)OC)c2c3cc(ccc31)-c1csc(n1)C[C@H](NC(=O)[C@H]1C[C@@H]1C)C(=O)N1CCC[C@H](N1)C(=O)OCC(C)(C)C2 (atropisomer, axis not shown) [Compound 31, (1S,2S)-N-((6^3S,4S,Z)-1^1-ethyl-1^2-(2-((S)-1-methoxyethyl)-5-(5-(1-methylazetidin-3-yl)isoxazol-3-yl)pyridin-3-yl)-10,10-dimethyl-5,7-dioxo-6^1,6^2,6^3,6^4,6^5,6^6-hexahydro-1^1H-8-oxa-2(4,2)-thiazola-1(5,3)-indola-6(1,3)-pyridazinacycloundecaphane-4-yl)-2-methylcyclopropane-1-carboxamide]"

# — patent publication US20260193271A1, “PAN-KRAS INHIBITOR COMPOUND” (ADLAI NORTYE BIOPHARMA CO., LTD., priority 2022, published 2026)
